What all share (assay type): cell-based
The subject of experiment [1] is erythrocytic stages of P. falciparum. The note with it: for active against P. falciparum: statement in words; for IC50: strain (NF54 or K1) not given. The protocol:
In vitro activity against erythrocytic stages of P. falciparum was determined using a 3H-hypoxanthine incorporation assay using the drug sensitive NF54 strain (Schipol airport) or the chloroquine and pyrimethamine resistant K1 strain that originate from Thailand and the standard drug chloroquine (Sigma C6628). Compounds were dissolved in DMSO at 10 mg/ml and added to parasite cultures incubated in RPMI 1640 medium without hypoxanthine, supplemented with HEPES (5.94 g/l), NaHCO3 (2.1 g/1), neomycin (100 U/ml), Albumax® (5 g/l) and washed human red cells A^+ at 2.5% haematocrit (0.3% parasitaemia). Serial drug dilutions of eleven 3-fold dilution steps covering a range from 100 to 0.002 μg/ml were prepared. The 96-well plates were incubated in a humidified atmosphere at 37° C.; 4% CO2, 3% O2, 93% N2. After 48 h 50 μl of 3H-hypoxanthine (=0.5 μCi) was added to each well of the plate. The plates were incubated for a further 24 h under the same conditions. The plates were then harvested with a Betaplate™ cell harvester (Wallac, Zurich, Switzerland), and the red blood cells transferred onto a glass fibre filter then washed with distilled water. The dried filters were inserted into a plastic foil with 10 ml of scintillation fluid, and counted in a Betaplate™ liquid scintillation counter (Wallac, Zurich, Switzerland). IC50 values were calculated from sigmoidal inhibition curves by linear regression using Microsoft Excel. Chloroquine and artemisinin are used as control.

In experiment [2] the test system is L. donovani strain MHOM/ET/67/L82 axenic amastigotes. As to conditions: for active against L. donovani: statement in words; for IC50: strain MHOM/ET/67/L82 axenic amastigotes, 70 h. How it is done:
Amastigotes of L. donovani strain MHOM/ET/67/L82 were grown in axenic culture at 37° C. in SM medium^24 at pH 5.4 supplemented with 10% heat-inactivated fetal bovine serum under an atmosphere of 5% CO2 in air. One hundred microlitres of culture medium with 10^5 amastigotes from axenic culture with or without a serial drug dilution were seeded in 96-well microtitre plates. Serial drug dilutions of eleven 3-fold dilution steps covering a range from 90 to 0.002 μg/ml were prepared. After 70 h of incubation the plates were inspected under an inverted microscope to assure growth of the controls and sterile conditions. 10 μl of Alamar Blue (12.5 mg resazurin dissolved in 100 ml distilled water) were then added to each well and the plates incubated for another 2 h. Then the plates were read with a Spectramax Gemini XS microplate fluorometer (Molecular Devices Cooperation, Sunnyvale, Calif., USA) using an excitation wave length of 536 nm and an emission wave length of 588 nm. Data were analyzed using the software Softmax Pro (Molecular Devices Cooperation, Sunnyvale, Calif., USA). Decrease of fluorescence (=inhibition) was expressed as percentage of the fluorescence of control cultures and plotted against the drug concentrations. From the sigmoidal inhibition curves the IC50 values were calculated.

For experiment [3], the system named is Trypanosoma brucei rhodesiense STIB900. As to conditions: for IC50: 70 h; for active against T. brucei rhodesiense: statement in words. The protocol: This stock was isolated in 1982 from a human patient in Tanzania and after several mouse passages cloned and adapted to axenic culture conditions. Minimum Essential Medium (50 μl) supplemented with 25 mM HEPES, 1 g/l additional glucose, 1% MEM non-essential amino acids (100×), 0.2 mM 2-mercaptoethanol, 1 mM Na-pyruvate and 15% heat inactivated horse serum was added to each well of a 96-well microtiter plate. Serial drug dilutions of eleven 3-fold dilution steps covering a range from 100 to 0.002 μg/ml were prepared. Then 4×10^3 bloodstream forms of T. b. rhodesiense STIB 900 in 50 μl was added to each well and the plate incubated at 37° C. under a 5% CO2 atmosphere for 70 h. 10 μl Alamar Blue (resazurin, 12.5 mg in 100 ml double-distilled water) was then added to each well and incubation continued for a further 2-4 h. Then the plates were read with a Spectramax Gemini XS microplate fluorometer (Molecular Devices Cooperation, Sunnyvale, Calif., USA) using an excitation wave length of 536 nm and an emission wave length of 588 nm. The IC50 values were calculated by linear regression from the sigmoidal dose inhibition curves using SoftmaxPro software (Molecular Devices Cooperation, Sunnyvale, Calif., USA). Melarsoprol (Arsobal Sanofi-Aventis, received from WHO) is used as control.

Experiment [4] concerns Leishmania mexicana (M379). As to conditions: for IC50: parasite stage not given, read-out: IC50 L. mexicana; for active against L. mexicana: statement in words. How it is done: Leishmania mexicana (M379) promastigote parasites were maintained at 26° C. in Schneider's Insect medium (Sigma-Aldrich) supplemented with heat-inactivated foetal bovine sera (FBS, 15%; Biosera Ltd). Cells were counted using a Neubauer Improved Haemocytometer. Promastigotes were transformed into axenic amastigotes by a pH and temperature shift as previously described. A culture of recently transformed (three days) promastigotes in the late log phase was transferred into Schneider's Insect medium supplemented with 20% heat-inactivated FBS (pH 5.5) at 5×10^5 parasites/mL. After 6 days, the parasites were in the metacyclic stage and used for transformation to amastigote-like forms by transfer in the same medium at 32° C. at 5×10^5 parasites/mL. After additional 5-7 days, the parasites should be in the amastigote stage and be ready for cytotoxicity studies and infections.
Cytotoxicity analyses were performed in 96-well plates (Costar, Fisher Scientific) using Alamar Blue (Invitrogen) for cell viability detection as previously described.
Promastigote and amastigote L. mexicana were pre-incubated with the compounds in triplicate (5 mM stock solutions in DMSO; Amphotericin B was used as a positive control; untreated parasites with DMSO as a negative control) in 50 μl of the corresponding media at 4×106 mL-1 for 1 hour. Afterwards, 40 μl were removed from each well before the addition of 90 μl of the corresponding media, followed by incubation for 24 hours at 4×105 mL-1. Then, 10 μl Alamar Blue solution (Invitrogen) was added to each well for an incubation of 4 hours prior to assessing cell viability using a fluorescent plate reader (Biotek; Ex 560 nm/Em 600 nm). To investigate the effects of serum on the efficacy of the peptoids, the assay described above was modified using serum-free medium for the pre-incubation time. For these assays, the parasites were washed three times in serum-free medium before adding them to the compound solutions. All of the experiments described above were carried out on a minimum of two separate occasions to ensure a robust data set was collected.

Where a SMILES comes first, the peptide text is derived from it. [ ]: non-standard residue; d: D form. Nspe = C[C@H](NCC(=O)O)c1ccccc1; NhArg = N=C(N)NCCCCNCC(=O)O; Nlys = NCCCCNCC(=O)O

Consider two molecules from patent US20180201647A1, “Peptoid” (The University of Durham, priority 2015, published 2018).

Take `C[C@@H](c1ccccc1)N(CC(N)=O)C(=O)CN(C(=O)CN(CCCCNC(=N)N)C(=O)CN(C(=O)CN(C(=O)CN(CCCCNC(=N)N)C(=O)CN(C(=O)CN(C(=O)CN(CCCCN)C(=O)CN(C(=O)CN(C(=O)CNCCCCN)[C@@H](C)c1ccccc1)[C@@H](C)c1ccccc1)[C@@H](C)c1ccccc1)[C@@H](C)c1ccccc1)[C@@H](C)c1ccccc1)[C@@H](C)c1ccccc1)[C@@H](C)c1ccccc1` [Peptoid 1, (NLys-Nspe-Nspe)2(NhArg-Nspe-Nspe)2] (H-[Nlys][Nspe][Nspe][Nlys][Nspe][Nspe][NhArg][Nspe][Nspe][NhArg][Nspe][Nspe]-NH2; N-terminus assumed): in experiment [1], the “active against P. falciparum” value was “active” and the IC50 came to 1.5 µM. For the same molecule, in experiment [2], the “active against L. donovani” value is given as “active” and the IC50 stood at 11.1 µM. Besides, in experiment [3], the 50% inhibitory concentration (IC50) came to 6.73 µM and the “active against T. brucei rhodesiense” value is listed as “active”. Moreover, in experiment [4], the IC50 amounted to 37 µM and the “active against L. mexicana” value was “active”.

Turning to `C[C@@H](c1ccccc1)N(CC(N)=O)C(=O)CN(C(=O)CN(CCCCN)C(=O)CN(C(=O)CN(C(=O)CN(CCCCNC(=N)N)C(=O)CN(C(=O)CN(C(=O)CN(CCCCN)C(=O)CN(C(=O)CN(C(=O)CNCCCCNC(=N)N)[C@@H](C)c1ccccc1)[C@@H](C)c1ccccc1)[C@@H](C)c1ccccc1)[C@@H](C)c1ccccc1)[C@@H](C)c1ccccc1)[C@@H](C)c1ccccc1)[C@@H](C)c1ccccc1` [Peptoid 4, [(NhArg-Nspe-Nspe)(NLys-Nspe-Nspe)]2] (H-[NhArg][Nspe][Nspe][Nlys][Nspe][Nspe][NhArg][Nspe][Nspe][Nlys][Nspe][Nspe]-NH2; N-terminus assumed), in experiment [1], the “active against P. falciparum” value was “active” and the IC50 was 2.72 µM. In experiment [2], the “active against L. donovani” value is on record as “active” and the IC50 is 19.9 µM. In experiment [3], the concentration for half-maximal inhibition (IC50) was determined as 16.7 µM and the “active against T. brucei rhodesiense” value is recorded as “active”. Further, in experiment [4], the 50% inhibitory concentration (IC50) worked out at 37 µM and the “active against L. mexicana” value was “active”.
